Read-outs that look alike come from different tables or passages of the source.
Experiments:
pSTAT3 = pSTAT3 (Homo sapiens, UniProt P40763); assay: MSD-pSTAT-PBMC Assay (pSTAT3, IL-6 stimulated); type: cell-based
Source text: Cryopreserved Peripheral Blood Mononuclear Cells (PBMC) are from AllCells. Recombinant Human IL-4 and IL-6 are from Peprotech. Mouse monoclonal anti-STAT3 antibody, rabbit monoclonal anti-pY705-STAT3 antibody, rabbit monoclonal Anti-pY641-STAT6 antibody, and lysis buffer are from Cell Signaling Technology (CST). Mouse monoclonal anti-STAT6 antibody is from BioLegend. Assay plates, blocker, and anti-rabbit secondary antibody are from Meso Scale Discovery (MSD).
Cryopreserved PBMCs were thawed out and allowed to recover overnight in IMDM+10% heat-inactivated FBS prior to plating 50,000 (STAT3) or 25,000 (STAT6) cells per well in 96-well U-bottom tissue culture plates. Cells were treated with compound for 3 hrs, then stimulated with 10 ng/mL IL-6 (STAT3) or 1 ng/mL IL-4 (STAT6) for 10 min. Cells were then spun down and washed with ice-cold PBS prior to lysing the cell pellet with 1× lysis buffer (CST) with 1× HALT protease and phosphatase inhibitor cocktail (Thermo). Lysates were transferred to and incubated overnight at 4° C. with shaking in QuickPlex 96-well high bind assay plates (MSD) pre-coated overnight with 30 μL per well of […] mouse monoclonal anti-STAT3 antibody (STAT3) or 2 μg/mL mouse monoclonal anti-STAT6 antibody (STAT6) in 1× PBS, and pre-blocked for 1 hour with 3% Blocker-A (MSD). Captured protein in the assay plates were then washed and probed with 25 μL per well of […] rabbit monoclonal anti-pY705-STAT3 antibody (STAT3) or […] rabbit monoclonal Anti-pY641-STAT6 antibody (STAT6) in 1% Blocker-A for 1 hour at room temperature with shaking, then washed and probed with 25 ul per well of 1 ug/ml Sulfo-TAG Labeled Goat Anti-Rabbit Antibody (MSD) in 1% Blocker-A for 1 hour at room temperature with shaking. Assay plates were then washed and 150 μL of 1× Read Buffer-T (MSD) was added to each well prior to reading on an SQ120 MSD Plate Reader. Assay signal from each sample was subtracted by the signal from unstimulated control wells and normalized to DMSO control wells. IC50 values were calculated using Graph Pad Prism Dose-Response Nonlinear Regression with variable slope. For both pSTAT3 and pSTAT6 A=≤100 nM; B=>100-1000 nM; C=>1000-3000 nM; and D=>3 μM.

STAT3 = target: T1, STAT3 (Homo sapiens, UniProt P40763); assay: STAT3 Fluorescence Polarization (FP) Assay; type: binding
T1 construct: Recombinant STAT3 protein (STAT3(G127-I722))
Procedure: An FP assay was developed to determine IC50 values for test substances.
Recombinant STAT3 protein (STAT3(G127-I722)) at 25 nM was combined with a fluorescently labeled, phosphotyrosine peptide probe (5-FAM-GpYLPQTV-NH2) at 2 nM in FP buffer (10 mM HEPES pH 7.4, 50 mM NaCl, 1 mM EDTA, 0.05% Tween 20, 2 mM DTT). 50 μL of STAT3-probe mixture was added to serial diluted compounds in black, 96-well plates (Greiner BioOne 655076) to a final concentration of 1% DMSO. Reaction components were mixed, and FP was measured after 45-minute incubation at room temperature using a Tecan Spark multimode plate reader. FP signal (mP) was plotted against the log concentration of the test substances and IC50 values were calculated by nonlinear regression analysis using GraphPad Prism software. For STAT3 FP assay, A=≤100 nM; B=>100-1000 nM; C=>1-10 μM; and D=>10 μM.

STAT6 = target: T2, STAT6 (Homo sapiens, UniProt P42226); assay: STAT6 Fluorescence Polarization (FP) Assay; type: binding
T2 construct: Recombinant STAT6 protein (STAT6(W123-T658))
T2 sequence (P42226 123-658): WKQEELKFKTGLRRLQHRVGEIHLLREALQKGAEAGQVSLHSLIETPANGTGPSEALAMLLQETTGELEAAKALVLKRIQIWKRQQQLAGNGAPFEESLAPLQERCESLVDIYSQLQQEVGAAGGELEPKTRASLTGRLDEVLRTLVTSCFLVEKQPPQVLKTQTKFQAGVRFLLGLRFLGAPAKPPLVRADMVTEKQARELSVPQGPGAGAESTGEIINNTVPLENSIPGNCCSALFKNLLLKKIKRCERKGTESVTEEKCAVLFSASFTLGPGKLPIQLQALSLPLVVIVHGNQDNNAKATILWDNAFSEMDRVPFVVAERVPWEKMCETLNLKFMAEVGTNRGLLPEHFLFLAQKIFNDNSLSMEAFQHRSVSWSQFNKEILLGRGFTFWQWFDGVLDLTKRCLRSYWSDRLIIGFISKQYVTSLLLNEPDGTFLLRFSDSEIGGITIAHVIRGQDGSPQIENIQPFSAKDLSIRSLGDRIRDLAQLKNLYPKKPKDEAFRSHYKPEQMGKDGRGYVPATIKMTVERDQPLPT
Procedure: An FP assay was developed to determine IC50 values for test substances. Recombinant STAT6 protein (STAT6(W123-T658)) at 250 nM was combined with a fluorescently labeled, phosphotyrosine peptide probe (5-FAM-ApYKPFQDLI-NH2) at 2 nM in FP buffer (10 mM HEPES pH 7.4, 50 mM NaCl, 1 mM EDTA, 0.05% Tween 20, 2 mM DTT). 50 μL of STAT6-probe mixture was added to serial diluted compounds in black, 96-well plates (Greiner BioOne 655076) to a final concentration of 1% DMSO. Reaction components were mixed, and FP was measured after 45-minute incubation at room temperature using a Tecan Spark multimode plate reader. FP signal (mP) was plotted against the log concentration of the test substances and IC50 values were calculated by nonlinear regression analysis using GraphPad Prism software. For STAT6 FP assay, A=≤300 nM; B=>300-3000 nM; C=>3-30 μM; and D=>30 μM.

[1] = read-out: pSTAT3 IC50, compound 3 hrs, then 10 ng/mL IL-6 10 min, pY705-STAT3
[2] = compound 3 hrs, then 10 ng/mL IL-6 10 min, pY705-STAT3, read-out: pSTAT3 IC50

T1 sequence (P40763 127-722): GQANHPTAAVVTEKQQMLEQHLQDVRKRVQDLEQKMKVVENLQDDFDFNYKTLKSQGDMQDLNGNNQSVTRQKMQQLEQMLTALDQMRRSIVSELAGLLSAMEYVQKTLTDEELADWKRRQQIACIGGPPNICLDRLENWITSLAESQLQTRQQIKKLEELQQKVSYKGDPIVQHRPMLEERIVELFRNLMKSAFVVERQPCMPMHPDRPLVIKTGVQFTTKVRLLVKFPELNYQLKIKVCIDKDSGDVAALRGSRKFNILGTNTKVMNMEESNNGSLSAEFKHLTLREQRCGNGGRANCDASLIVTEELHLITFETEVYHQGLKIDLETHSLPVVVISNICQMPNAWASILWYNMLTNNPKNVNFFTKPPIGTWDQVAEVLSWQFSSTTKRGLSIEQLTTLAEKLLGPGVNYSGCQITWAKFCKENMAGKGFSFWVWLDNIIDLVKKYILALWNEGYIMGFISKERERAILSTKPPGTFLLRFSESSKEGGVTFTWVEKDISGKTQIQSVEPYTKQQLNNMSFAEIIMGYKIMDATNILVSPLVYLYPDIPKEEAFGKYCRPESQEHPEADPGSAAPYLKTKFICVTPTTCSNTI
pSTAT3, sequence (P40763 whole entry): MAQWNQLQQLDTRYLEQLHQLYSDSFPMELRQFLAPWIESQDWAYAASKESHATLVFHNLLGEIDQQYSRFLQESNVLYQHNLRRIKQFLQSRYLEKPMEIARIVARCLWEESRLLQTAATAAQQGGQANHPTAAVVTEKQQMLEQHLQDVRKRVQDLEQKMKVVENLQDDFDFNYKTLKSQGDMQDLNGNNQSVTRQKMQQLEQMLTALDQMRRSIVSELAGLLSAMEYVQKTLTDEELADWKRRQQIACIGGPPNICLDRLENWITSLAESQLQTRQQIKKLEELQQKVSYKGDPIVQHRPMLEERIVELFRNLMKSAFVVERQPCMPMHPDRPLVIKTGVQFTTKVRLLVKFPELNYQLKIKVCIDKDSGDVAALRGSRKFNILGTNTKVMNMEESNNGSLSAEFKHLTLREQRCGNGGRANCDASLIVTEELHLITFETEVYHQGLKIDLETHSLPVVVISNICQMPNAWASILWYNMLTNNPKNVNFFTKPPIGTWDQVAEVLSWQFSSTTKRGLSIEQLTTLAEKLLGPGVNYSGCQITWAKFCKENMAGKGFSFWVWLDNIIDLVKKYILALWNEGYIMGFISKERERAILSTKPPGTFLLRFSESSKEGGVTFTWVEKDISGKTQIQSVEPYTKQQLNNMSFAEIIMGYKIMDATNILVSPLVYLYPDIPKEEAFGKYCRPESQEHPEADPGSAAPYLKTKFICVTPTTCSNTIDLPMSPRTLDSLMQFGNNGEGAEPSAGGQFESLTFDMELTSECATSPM

SMILES	IC50 (pSTAT3; [1]) [nM]	IC50 (STAT3) [nM]	IC50 (STAT6) [µM]	IC50 (pSTAT3; [2]) [nM]
Cn1c(=O)n(C2CCC(=O)NC2=O)c2ccc(C#CCCC3CCN(c4ccncc4C4CN(C(=O)[C@@H]5CC[C@@H]6CCC[C@H](NC(=O)c7cc8cc([C@@H](F)P(=O)(O)O)ccc8s7)C(=O)N65)C4)CC3)cc21 (stereo partly drawn) [Compound 40, ((1S)-(2-(((3S,6S,9aS)-3-(3-(4-(4-(4-(1-(2,6-dioxopiperidin-3-yl)-3-methyl-2-oxo-2,3-dihydro-1H-benzo[d]imidazol-5-yl)but-3-yn-1-yl)piperidin-1-yl)pyridin-3-yl)azetidine-1-carbonyl)-5-oxooctahydro-1H-pyrrolo[1,2-a]azepin-6-yl)carbamoyl)benzo[b]thiophen-5-yl)fluoromethyl)phosphonic acid]	< 100	< 100	> 30	–
Cn1c(=O)n(C2CCC(=O)NC2=O)c2ccc(C#CCCC3CCN(c4ccncc4C4CN(C(=O)[C@@H]5CC[C@@H]6CCC[C@H](NC(=O)c7cc8cc([C@H](F)P(=O)(O)O)ccc8s7)C(=O)N65)C4)CC3)cc21 (stereo partly drawn) [Compound 37, ((1R)-(2-(((3S,6S,9aS)-3-(3-(4-(4-(4-(1-(2,6-dioxopiperidin-3-yl)-3-methyl-2-oxo-2,3-dihydro-1H-benzo[d]imidazol-5-yl)but-3-yn-1-yl)piperidin-1-yl)pyridin-3-yl)azetidine-1-carbonyl)-5-oxooctahydro-1H-pyrrolo[1,2-a]azepin-6-yl)carbamoyl)benzo[b]thiophen-5-yl)fluoromethyl)phosphonic acid]	–	< 100	3 to 30	100 to 1000
O=C(COc1cccc2c1C(=O)N(C1CCC(=O)NC1=O)C2=O)NCCOCCOCC(=O)NC1(c2ccccn2)CN(C(=O)[C@@H]2CC[C@H]3CCCC[C@H](NC(=O)c4cc5cc(C(F)(F)P(=O)(O)O)ccc5s4)C(=O)N32)C1 (stereo partly drawn) [Compound 32, ((2-(((3S,6S,10aR)-3-(3-(2-(2-(2-(2-((2-(2,6-dioxopiperidin-3-yl)-1,3-dioxoisoindolin-4-yl)oxy)acetamido)ethoxy)ethoxy)acetamido)-3-(pyridin-2-yl)azetidine-1-carbonyl)-5-oxodecahydropyrrolo[1,2-a]azocin-6-yl)carbamoyl)benzo[b]thiophen-5-yl)difluoromethyl)phosphonic acid]	> 3000	< 100	3 to 30	–
Cn1c(=O)n(C2CCC(=O)NC2=O)c2ccc(C#CCCC3CCN(c4ccncc4C4CN(C(=O)[C@@H]5CC[C@@H]6CCC[C@H](NC(=O)c7cc8cc(C(F)(F)P(=O)(O)O)ccc8s7)C(=O)N65)C4)CC3)cc21 (stereo partly drawn) [Compound 34, ((2-(((3S,6S,9aS)-3-(3-(4-(4-(4-(1-(2,6-dioxopiperidin-3-yl)-3-methyl-2-oxo-2,3-dihydro-1H-benzo[d]imidazol-5-yl)but-3-yn-1-yl)piperidin-1-yl)pyridin-3-yl)azetidine-1-carbonyl)-5-oxooctahydro-1H-pyrrolo[1,2-a]azepin-6-yl)carbamoyl)benzo[b]thiophen-5-yl)difluoromethyl)phosphonic acid]	–	< 100	0.3 to 3	100 to 1000
CCCC(=O)SCCOP(=O)(OCCSC(=O)CCC)C(F)(F)c1ccc2sc(C(=O)N[C@H]3CCC[C@H]4CC[C@@H](C(=O)N5CC(c6cnccc6OCCOc6ccc(C7CCC(=O)NC7=O)cc6)C5)N4C3=O)cc2c1 (stereo partly drawn) [Compound 10, S,S(((((2-(((3S,6S,9aS)-3-(3-(4-(2-(4-(2,6-dioxopiperidin-3-yl)phenoxy)ethoxy)pyridin-3-yl)azetidine-1-carbonyl)-5-oxooctahydro-1H-pyrrolo[1,2-a]azepin-6-yl)carbamoyl)benzo[b]thiophen-5-yl)difluoromethyl)phosphoryl)bis(oxy))bis(ethane-2,1-diyl)) dibutanethioate]	–	–	–	< 100
CCCC(=O)SCCOP(=O)(OCCSC(=O)CCC)C(F)(F)c1ccc2sc(C(=O)N[C@H]3CCC[C@H]4CC[C@@H](C(=O)N5CC(c6cnccc6N6CCC(C(=O)N[C@H](C(=O)N7C[C@H](O)C[C@H]7C(=O)NCc7ccc(-c8scnc8C)cc7)C(C)(C)C)CC6)C5)N4C3=O)cc2c1 [Compound 7, S,S((((difluoro(2-(((3S,6S,9aS)-3-(3-(4-(4-(((S)-1-((2S,4R)-4-hydroxy-2-((4-(4-methylthiazol-5-yl)benzyl)carbamoyl)pyrrolidin-1-yl)-3,3-dimethyl-1-oxobutan-2-yl)carbamoyl)piperidin-1-yl)pyridin-3-yl)azetidine-1-carbonyl)-5-oxooctahydro-1H-pyrrolo[1,2-a]azepin-6-yl)carbamoyl)benzo[b]thiophen-5-yl)methyl)phosphoryl)bis(oxy))bis(ethane-2,1-diyl)) dibutanethioate]	100 to 1000	–	–	–
CCCC(=O)SCCOP(=O)(OCCSC(=O)CCC)C(F)(F)c1ccc2sc(C(=O)N[C@H]3CCC[C@H]4CC[C@@H](C(=O)N5CC(c6cnccc6OCCCCN[C@H](C(=O)N6C[C@H](O)C[C@H]6C(=O)NCc6ccc(-c7scnc7C)cc6)C(C)(C)C)C5)N4C3=O)cc2c1 [Compound 1, S,S((((difluoro(2-(((3S,6S,9aS)-3-(3-(4-(4-(((S)-1-((2S,4R)-4-hydroxy-2-((4-(4-methylthiazol-5-yl)benzyl)carbamoyl)pyrrolidin-1-yl)-3,3-dimethyl-1-oxobutan-2-yl)amino)butoxy)pyridin-3-yl)azetidine-1-carbonyl)-5-oxooctahydro-1H-pyrrolo[1,2-a]azepin-6-yl)carbamoyl)benzo[b]thiophen-5-yl)methyl)phosphoryl)bis(oxy))bis(ethane-2,1-diyl)) dibutanethioate]	–	–	–	100 to 1000
CCCOC(=O)[C@H](C)NP(=O)(Oc1ccccc1)[C@H](F)c1ccc2sc(C(=O)N[C@H]3CCC[C@H]4CC[C@@H](C(=O)N5CC(c6cnccc6N6CCC(CCC#Cc7ccc8c(c7)n(C)c(=O)n8C7CCC(=O)NC7=O)CC6)C5)N4C3=O)cc2c1 (stereo partly drawn) [Compound 39, propyl (((1S)-(2-(((3S,6S,9aS)-3-(3-(4-(4-(4-(1-(2,6-dioxopiperidin-3-yl)-3-methyl-2-oxo-2,3-dihydro-1H-benzo[d]imidazol-5-yl)but-3-yn-1-yl)piperidin-1-yl)pyridin-3-yl)azetidine-1-carbonyl)-5-oxooctahydro-1H-pyrrolo[1,2-a]azepin-6-yl)carbamoyl)benzo[b]thiophen-5-yl)fluoromethyl)(phenoxy)phosphoryl)-L-alaninate]	< 100	–	–	–
